Assay [1] concerns endogenous Ca2+ entry mechanism. The assay is described as follows: Ca2+ responses in control non-induced (Tet-) HEK cells with extracellular Ca2+. In kind it is cell-based, human. The following applies: 10 μM compound.
For assay [2], the target named is T1, TRPV4 channels (Homo sapiens, UniProt Q9HBA0).
T1 construct: expressed in transfected cells
The assay is described as follows: 4alphaPDD-evoked Ca2+ entry in CHO K1 cells expressing TRPV4. The assay is classed as cell-based. The following applies: 10 μM compound, 1 μM 4αPDD, fluo-4.

A further assay has as its target T2, TRPC4 (Homo sapiens, UniProt Q9UBN4).
T2 construct: expressed in transfected cells
T2 sequence (Q9UBN4 1-893 isoform Q9UBN4-2): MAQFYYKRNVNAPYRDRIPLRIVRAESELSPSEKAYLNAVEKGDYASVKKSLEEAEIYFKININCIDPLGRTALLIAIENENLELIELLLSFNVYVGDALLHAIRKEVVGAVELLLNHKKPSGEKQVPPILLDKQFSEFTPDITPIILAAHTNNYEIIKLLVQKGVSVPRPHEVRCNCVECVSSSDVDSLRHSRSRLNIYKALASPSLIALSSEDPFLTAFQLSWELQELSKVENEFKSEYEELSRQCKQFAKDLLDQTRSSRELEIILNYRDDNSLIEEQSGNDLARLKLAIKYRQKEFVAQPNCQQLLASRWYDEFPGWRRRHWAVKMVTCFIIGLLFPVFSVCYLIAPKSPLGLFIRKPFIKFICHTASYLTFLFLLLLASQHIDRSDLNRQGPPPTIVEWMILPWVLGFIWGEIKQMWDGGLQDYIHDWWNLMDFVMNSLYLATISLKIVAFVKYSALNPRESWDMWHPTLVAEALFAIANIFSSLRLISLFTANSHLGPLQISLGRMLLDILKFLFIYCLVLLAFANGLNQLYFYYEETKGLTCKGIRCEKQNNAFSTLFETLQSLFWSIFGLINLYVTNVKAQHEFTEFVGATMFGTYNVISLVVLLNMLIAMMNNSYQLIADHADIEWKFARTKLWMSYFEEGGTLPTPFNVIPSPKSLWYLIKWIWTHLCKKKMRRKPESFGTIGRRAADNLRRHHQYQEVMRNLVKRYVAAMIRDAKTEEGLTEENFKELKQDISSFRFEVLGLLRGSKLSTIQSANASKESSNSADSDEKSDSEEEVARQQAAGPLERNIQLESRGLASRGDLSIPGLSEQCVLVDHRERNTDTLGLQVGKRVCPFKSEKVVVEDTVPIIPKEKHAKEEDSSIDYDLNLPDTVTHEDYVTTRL
The assay is described as follows: Outside-out patch recordings from TRPC4 Tet+ cells stimulated by (-)-Englerin A. The following applies: 5 μM compound, 100 nM (-)-Englerin A. The assay is classed as cell-based.

The target of a further assay is T3, TRPM2 channels (Homo sapiens, UniProt O94759).
T3 construct: expressed in transfected cells
The assay is described as follows: H2O2-evoked Ca2+ entry in cells overexpressing TRPM2. The following applies: 10 μM compound, 1 mM H2O2, fura-2. The assay is classed as cell-based.

Assay [3] deals with endogenous Ca2+ release signal. The assay is described as follows: Endogenous Ca2+ release in non-induced (Tet-) TRPC5 HEK cells. The following applies: 10 μM compound, no extracellular Ca2+. In kind it is cell-based, human.
Assay [4] has as its target T4, human TRPC5 (Homo sapiens, UniProt Q9UL62).
T4 construct: expressed in transfected cells
T4 sequence (Q9UL62 1-973): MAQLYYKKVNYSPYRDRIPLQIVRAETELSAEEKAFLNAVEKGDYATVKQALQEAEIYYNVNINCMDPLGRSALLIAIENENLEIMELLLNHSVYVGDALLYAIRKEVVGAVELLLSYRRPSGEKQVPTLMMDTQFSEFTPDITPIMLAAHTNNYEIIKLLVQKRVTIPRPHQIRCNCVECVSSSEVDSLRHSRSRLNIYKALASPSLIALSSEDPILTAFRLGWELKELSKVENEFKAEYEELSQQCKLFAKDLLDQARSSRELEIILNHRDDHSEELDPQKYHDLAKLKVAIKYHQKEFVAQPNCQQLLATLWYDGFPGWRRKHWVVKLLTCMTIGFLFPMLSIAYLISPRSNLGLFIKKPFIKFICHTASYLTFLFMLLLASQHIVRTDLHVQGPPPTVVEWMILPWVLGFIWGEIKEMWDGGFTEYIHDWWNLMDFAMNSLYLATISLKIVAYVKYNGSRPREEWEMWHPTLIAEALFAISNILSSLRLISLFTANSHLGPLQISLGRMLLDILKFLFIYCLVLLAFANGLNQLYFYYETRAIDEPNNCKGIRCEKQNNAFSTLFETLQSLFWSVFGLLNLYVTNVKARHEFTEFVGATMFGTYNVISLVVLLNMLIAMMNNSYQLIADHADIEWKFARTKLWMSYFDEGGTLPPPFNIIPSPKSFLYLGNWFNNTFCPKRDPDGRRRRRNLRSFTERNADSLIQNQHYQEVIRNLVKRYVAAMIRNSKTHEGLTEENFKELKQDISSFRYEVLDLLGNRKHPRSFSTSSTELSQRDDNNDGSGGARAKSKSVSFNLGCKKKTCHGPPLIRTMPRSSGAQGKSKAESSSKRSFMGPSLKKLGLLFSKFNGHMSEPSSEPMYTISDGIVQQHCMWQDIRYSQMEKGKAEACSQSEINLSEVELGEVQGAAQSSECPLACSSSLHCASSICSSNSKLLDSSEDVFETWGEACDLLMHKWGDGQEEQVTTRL
The assay is described as follows: Gd3+-evoked Ca2+ entry in TRPC5-expressing (Tet+) HEK 293 cells. The assay is classed as cell-based.

In assay [5] the target is T4, human TRPC5. Briefly: Outside-out patch recordings from TRPC5 Tet+ cells. The assay is classed as cell-based. The following applies: outside-out patch, (-)-Englerin A-activated TRPC5.
Assay [6] concerns the target T4, human TRPC5. The assay is described as follows: S1P- or LPC-evoked Ca2+ entry in TRPC5 (Tet+) HEK 293 cells. In kind it is cell-based. The following applies: 10 μM compound, fura-2.
In assay [7] the target is T5, TRPC1-TRPC5 heteromeric channels (Homo sapiens, UniProt P48995+Q9UL62).
T5 construct: expressed in transfected cells; host or cells: HEK 293-MSR, transient, Lipofectamine 2000
The assay is described as follows: Whole-cell recordings of TRPC1-TRPC5 heteromeric channels stimulated by (-)-Englerin A. The assay is classed as cell-based. The following applies: 5 μM compound, 100 nM (-)-Englerin A.

Another assay deals with T6, TRPC3 channels (Homo sapiens, UniProt Q13507).
T6 construct: expressed in transfected cells
T6 sequence (Q13507 74-921 limits assumed): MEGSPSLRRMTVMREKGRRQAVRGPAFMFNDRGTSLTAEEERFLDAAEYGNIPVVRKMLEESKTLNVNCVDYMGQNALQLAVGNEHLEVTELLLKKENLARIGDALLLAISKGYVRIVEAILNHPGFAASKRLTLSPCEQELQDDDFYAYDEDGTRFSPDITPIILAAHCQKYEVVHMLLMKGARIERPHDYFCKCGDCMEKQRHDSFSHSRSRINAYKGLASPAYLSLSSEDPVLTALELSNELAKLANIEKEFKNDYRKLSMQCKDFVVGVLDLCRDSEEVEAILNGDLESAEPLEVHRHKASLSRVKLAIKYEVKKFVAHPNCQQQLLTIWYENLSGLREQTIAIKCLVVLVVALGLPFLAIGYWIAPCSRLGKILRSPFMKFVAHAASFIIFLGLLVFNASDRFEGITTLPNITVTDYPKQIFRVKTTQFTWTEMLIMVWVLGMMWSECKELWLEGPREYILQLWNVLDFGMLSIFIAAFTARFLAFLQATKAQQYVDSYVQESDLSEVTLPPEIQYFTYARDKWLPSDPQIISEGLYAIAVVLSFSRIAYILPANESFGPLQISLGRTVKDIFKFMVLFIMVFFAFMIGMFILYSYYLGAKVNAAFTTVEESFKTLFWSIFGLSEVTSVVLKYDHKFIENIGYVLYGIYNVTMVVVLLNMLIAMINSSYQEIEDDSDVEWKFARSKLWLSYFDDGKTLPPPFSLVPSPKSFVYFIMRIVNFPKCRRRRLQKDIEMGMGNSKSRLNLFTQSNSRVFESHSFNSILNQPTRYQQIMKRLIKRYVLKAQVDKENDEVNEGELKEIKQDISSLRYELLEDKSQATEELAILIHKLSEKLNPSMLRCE
Briefly: OAG-evoked Ca2+ entry in cells overexpressing TRPC3. The assay is classed as cell-based. The following applies: 10 μM compound, 50 μM OAG, fura-2.

For assay [8], the system named is GABA-evoked ionic currents. Details: method as in Goutman et al., 2003. The following applies: ref Goutman et al., 2003; cited from earlier work.
Assay [9] deals with T4, human TRPC5. Briefly: Whole-cell patch clamp of TRPC5-expressing (Tet+) HEK 293 cells. The assay is classed as cell-based. The following applies: 10 μM compound.
Assay [10] deals with TRPV4 channels. Details: method as in Ma et al., 2012. The following applies: ref Ma et al., 2012; cited from earlier work.
Another assay concerns TRPC5. Details: method as in Wong et al., 2010. The following applies: ref Wong et al., 2010; cited from earlier work.
The next assay relates to 3T3-L1 cells. The following applies: ref Harmon and Harp, 2001; cited from earlier work.

Data on three molecules can be found in paper PMC4728423, “Natural and synthetic flavonoid modulation of TRPC5 channels” (British Journal of Pharmacology, 2016).

In general, IC50 refers to the midpoint of a concentration-inhibition curve.

The structures appear in SMILES notation.

T3 sequence (O94759 whole entry): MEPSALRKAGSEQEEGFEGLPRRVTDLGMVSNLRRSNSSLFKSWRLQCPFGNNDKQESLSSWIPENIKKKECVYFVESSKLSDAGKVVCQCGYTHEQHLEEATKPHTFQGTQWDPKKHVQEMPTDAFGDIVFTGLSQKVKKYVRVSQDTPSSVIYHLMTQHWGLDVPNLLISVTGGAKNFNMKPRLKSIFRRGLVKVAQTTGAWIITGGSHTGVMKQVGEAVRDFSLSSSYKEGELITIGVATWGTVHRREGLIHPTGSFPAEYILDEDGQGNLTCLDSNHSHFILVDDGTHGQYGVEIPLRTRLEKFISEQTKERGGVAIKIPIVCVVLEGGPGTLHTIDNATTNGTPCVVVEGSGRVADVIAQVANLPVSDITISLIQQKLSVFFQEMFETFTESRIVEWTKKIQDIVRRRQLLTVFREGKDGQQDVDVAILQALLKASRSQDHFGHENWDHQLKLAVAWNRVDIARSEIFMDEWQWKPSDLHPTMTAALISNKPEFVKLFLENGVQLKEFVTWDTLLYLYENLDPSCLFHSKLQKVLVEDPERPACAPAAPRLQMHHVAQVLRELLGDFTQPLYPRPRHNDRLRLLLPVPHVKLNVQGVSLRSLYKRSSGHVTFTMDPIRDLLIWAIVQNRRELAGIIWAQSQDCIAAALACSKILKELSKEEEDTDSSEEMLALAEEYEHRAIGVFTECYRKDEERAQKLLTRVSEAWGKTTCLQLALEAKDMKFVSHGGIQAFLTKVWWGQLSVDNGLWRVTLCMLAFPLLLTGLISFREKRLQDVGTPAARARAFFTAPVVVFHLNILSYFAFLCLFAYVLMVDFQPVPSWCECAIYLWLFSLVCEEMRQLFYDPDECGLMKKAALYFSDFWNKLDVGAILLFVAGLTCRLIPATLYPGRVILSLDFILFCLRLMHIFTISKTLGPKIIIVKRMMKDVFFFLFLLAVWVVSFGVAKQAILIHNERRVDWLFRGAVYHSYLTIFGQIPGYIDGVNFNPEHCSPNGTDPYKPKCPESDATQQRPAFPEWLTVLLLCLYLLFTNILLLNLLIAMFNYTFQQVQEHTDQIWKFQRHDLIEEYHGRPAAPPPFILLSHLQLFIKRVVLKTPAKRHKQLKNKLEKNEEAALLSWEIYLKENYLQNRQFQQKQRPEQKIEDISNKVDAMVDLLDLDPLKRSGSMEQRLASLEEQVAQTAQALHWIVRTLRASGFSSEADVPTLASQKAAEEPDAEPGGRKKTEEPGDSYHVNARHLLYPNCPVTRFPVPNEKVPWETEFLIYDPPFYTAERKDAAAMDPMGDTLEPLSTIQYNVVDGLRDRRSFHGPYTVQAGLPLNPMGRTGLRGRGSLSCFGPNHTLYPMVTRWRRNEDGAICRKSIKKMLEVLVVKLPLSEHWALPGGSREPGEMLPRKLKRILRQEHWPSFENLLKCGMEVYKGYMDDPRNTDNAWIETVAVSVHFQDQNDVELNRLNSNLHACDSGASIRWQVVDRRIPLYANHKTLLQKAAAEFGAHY
T5 sequence (P48995 whole entry, one chain of several): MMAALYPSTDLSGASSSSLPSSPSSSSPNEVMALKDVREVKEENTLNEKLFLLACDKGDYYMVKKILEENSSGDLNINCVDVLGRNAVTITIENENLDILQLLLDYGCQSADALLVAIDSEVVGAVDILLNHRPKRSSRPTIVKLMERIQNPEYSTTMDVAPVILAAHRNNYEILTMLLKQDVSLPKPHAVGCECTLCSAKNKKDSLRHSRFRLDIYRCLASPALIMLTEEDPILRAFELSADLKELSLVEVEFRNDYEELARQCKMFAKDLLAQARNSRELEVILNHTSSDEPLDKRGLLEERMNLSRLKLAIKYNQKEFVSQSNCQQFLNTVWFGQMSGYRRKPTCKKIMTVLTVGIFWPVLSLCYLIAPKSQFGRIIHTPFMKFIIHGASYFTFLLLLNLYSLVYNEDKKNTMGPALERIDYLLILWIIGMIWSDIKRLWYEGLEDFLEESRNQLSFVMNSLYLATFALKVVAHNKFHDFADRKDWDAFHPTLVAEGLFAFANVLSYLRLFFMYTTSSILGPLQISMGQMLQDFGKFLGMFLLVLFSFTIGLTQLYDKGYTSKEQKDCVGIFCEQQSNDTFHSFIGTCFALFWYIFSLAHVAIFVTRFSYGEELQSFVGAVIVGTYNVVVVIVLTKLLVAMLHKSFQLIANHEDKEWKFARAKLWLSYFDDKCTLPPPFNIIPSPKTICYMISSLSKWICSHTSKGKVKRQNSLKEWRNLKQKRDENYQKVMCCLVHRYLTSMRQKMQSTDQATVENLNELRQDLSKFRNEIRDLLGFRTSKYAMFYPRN
T1 sequence (Q9HBA0 whole entry): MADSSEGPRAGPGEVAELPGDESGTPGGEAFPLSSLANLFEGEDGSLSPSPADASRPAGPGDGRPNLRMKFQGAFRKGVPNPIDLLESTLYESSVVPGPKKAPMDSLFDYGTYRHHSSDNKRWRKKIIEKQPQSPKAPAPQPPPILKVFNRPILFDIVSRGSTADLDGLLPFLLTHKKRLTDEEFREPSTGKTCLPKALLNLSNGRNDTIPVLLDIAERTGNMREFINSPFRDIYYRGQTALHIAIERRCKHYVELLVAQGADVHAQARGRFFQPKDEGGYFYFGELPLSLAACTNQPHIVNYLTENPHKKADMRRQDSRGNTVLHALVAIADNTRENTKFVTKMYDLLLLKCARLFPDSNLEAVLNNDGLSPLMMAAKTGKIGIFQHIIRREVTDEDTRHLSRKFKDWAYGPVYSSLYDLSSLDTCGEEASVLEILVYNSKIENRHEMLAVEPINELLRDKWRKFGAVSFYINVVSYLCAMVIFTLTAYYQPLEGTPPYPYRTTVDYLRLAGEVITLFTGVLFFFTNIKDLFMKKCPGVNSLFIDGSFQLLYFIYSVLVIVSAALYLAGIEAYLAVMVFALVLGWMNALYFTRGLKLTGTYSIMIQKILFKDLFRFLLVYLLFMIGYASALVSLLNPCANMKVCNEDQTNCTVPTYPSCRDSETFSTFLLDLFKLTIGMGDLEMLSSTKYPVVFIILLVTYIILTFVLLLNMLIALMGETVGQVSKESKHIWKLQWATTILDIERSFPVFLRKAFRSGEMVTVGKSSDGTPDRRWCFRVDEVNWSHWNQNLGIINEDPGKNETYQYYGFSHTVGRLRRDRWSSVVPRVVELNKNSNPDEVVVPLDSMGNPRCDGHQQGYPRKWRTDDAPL

In the case of `O=c1c(O)c(-c2ccccc2Br)oc2cc(O)cc(O)c12` [AM12, 3,5,7‐trihydroxy‐2‐(2‐bromophenyl)‐4H‐chromen‐4‐one], the “effect on S1P and LPC responses in Tet- cells” value in [1] was “no effects”. For the same molecule, in assay [1] (100 μM ATP), the “effect on ATP response in the presence of extracellular Ca2+” value is reported as “enhanced”. Besides, on TRPV4 channels [2], the “effect on Ca2+ entry through TRPV4 channels” value is reported as “significant stimulatory effect”. Moreover, the “average inhibition of TRPC4 current” value on TRPC4 is reported as ~ 80%. Also, the “effect on TRPM2 channels” value on TRPM2 channels is reported as “no effect”. Further, the “effect on Ca2+ release evoked by thapsigargin” value in [3] (3 μM thapsigargin) was “no effect”. The “effect on Ca2+ release evoked by ATP” value in [3] (100 μM ATP) is “no effect”. Also, the IC50 on human TRPC5 [4] (TRPC5 (Tet+) HEK 293, Gd3+, fura-2, read-out: IC50, inhibition of Gd3+-evoked Ca2+ entry) is 280 nM. Further, at human TRPC5 [5], the recovery on washout entry is listed as “fast recovery on washout”. For the same molecule, at human TRPC5 [6] (5 μM S1P), the “effect on S1P-evoked Ca2+ entry” value is “stimulated rather than inhibited”. Moreover, the “effect on LPC-evoked Ca2+ entry” value on human TRPC5 [6] (10 μM LPC) is listed as “enhanced”. Further, the “inhibition of TRPC1-TRPC5 heteromeric channel current” value in [7] is ~ 20%. The “effect on Ca2+ entry through TRPC3 channels” value on TRPC3 channels was “did not reach statistical significance”.
Consider `O=c1cc(-c2ccc(O)cc2)oc2cc(O)cc(O)c12` [Apigenin], for which the “effect on GABA-evoked ionic currents” value in assay [8] is “inhibited”. For the same molecule, the “effect on TRPC5-mediated whole-cell current (no other activator)” value at human TRPC5 [9] was “stimulate”. The “effect on TRPV4 channels” value with TRPV4 channels [10] was “stimulating”. Besides, at human TRPC5 [4] (10 μM, 50 μM Gd3+, XRhod-1), the “effect on Gd3+-evoked Ca2+ entry (natural flavonoid screen)” value is “stimulatory effect”.
Regarding `O=c1c(-c2ccc(O)cc2)coc2cc(O)cc(O)c12` [genistein], the “effect on TRPC5” value in the assay on TRPC5 was “stimulated”. The “effect on 3T3-L1 cell proliferation and differentiation” value with 3T3-L1 cells was “inhibited proliferation and subsequent differentiation”.
